Activity calls are given as the source filed them.
Assays:
[1] = molecular target: T1, ORF 73 (Human herpesvirus 8, UniProt O40947); test: inhibitors of C-LANA binding to LBS DNA, dose response, biochemical, fluorescence polarization, cherry-picked samples (AID 504725); parameters: species or system Human gammaherpesvirus 8;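 also: fluorescence polarization of a labeled DNA duplex reporting LANA DNA binding; potency is for inhibitors that block LANA binding to the DNA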
T1 sequence (O40947 whole entry): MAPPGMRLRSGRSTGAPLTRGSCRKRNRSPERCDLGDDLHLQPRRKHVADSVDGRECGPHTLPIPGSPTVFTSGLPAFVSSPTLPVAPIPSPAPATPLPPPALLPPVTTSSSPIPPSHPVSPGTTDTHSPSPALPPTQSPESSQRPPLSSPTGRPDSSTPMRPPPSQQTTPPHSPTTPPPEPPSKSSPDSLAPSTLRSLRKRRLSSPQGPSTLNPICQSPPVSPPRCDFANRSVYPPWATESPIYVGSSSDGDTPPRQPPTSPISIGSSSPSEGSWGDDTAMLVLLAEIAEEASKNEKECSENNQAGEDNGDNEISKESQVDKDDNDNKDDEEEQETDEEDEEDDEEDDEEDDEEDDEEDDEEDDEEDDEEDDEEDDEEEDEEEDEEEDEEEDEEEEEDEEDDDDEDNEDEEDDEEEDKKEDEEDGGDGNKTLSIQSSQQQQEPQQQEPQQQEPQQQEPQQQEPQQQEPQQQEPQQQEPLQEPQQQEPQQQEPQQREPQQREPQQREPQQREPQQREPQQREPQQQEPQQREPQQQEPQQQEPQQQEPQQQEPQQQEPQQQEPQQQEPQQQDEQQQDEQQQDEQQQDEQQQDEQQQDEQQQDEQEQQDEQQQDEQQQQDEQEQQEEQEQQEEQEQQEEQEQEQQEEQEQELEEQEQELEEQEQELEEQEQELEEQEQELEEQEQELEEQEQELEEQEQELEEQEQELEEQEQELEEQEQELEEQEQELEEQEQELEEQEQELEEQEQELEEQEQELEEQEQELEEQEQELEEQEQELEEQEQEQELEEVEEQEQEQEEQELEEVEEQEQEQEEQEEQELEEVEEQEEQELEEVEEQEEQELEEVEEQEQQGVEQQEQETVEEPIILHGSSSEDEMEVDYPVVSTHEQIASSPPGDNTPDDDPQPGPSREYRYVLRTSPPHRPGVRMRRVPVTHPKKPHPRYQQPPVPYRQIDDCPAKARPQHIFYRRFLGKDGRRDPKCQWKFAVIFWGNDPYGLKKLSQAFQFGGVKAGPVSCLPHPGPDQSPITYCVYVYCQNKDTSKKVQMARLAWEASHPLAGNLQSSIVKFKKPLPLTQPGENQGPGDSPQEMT

[2] = molecular target: T2, Replicative DNA helicase DnaB (Mycobacterium tuberculosis, UniProt P9WMR3); test: DnaB intein splicing inhibitors, dose response, biochemical, cell-free fluorescence (AID 449749); assay type: functional
T2 sequence (P9WMR3 whole entry): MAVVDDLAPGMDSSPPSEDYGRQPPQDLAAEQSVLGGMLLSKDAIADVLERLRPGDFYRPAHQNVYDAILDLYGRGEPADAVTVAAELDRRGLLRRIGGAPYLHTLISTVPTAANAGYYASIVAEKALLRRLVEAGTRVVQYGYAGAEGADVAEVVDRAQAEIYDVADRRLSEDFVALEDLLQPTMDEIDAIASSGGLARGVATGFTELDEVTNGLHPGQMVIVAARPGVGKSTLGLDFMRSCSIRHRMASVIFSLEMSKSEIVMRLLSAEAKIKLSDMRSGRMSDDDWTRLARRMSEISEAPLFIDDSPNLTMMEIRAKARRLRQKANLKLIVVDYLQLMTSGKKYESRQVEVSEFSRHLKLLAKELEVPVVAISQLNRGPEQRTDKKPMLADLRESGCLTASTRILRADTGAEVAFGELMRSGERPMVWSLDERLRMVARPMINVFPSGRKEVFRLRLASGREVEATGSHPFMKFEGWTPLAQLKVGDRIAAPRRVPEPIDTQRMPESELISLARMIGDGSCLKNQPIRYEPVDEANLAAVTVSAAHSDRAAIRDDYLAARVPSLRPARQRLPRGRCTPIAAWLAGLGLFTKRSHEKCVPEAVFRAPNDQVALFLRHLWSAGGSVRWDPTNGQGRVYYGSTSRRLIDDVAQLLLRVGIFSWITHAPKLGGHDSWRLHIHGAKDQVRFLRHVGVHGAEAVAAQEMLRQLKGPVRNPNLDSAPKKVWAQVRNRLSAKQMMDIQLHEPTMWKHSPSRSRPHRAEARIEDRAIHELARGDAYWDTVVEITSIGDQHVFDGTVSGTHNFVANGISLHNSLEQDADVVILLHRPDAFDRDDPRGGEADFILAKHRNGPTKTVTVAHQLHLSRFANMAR

In the case of CCN(CC)CCN1C(=O)c2cccc3cc(N)cc(c23)C1=O, the AC50 [1] was 17.1 µM (active) and the AC50 [2] was 0.272 µM (active).
In the case of O=S(=O)(O)c1cc(Cl)cc(N=Nc2ccc(O)cc2O)c1O, the AC50 [1] was 70.2 µM (active).
O=C(O)c1cccc(-n2cccc2/C=C2/NC(=O)N(c3ccc(Cl)cc3)C2=O)c1 was tested, and the AC50 [1] was 23.3 µM (active).
C=C1C(=O)O[C@@H]2C[C@@H](C)[C@@H]3C=CC(=O)[C@@]3(C)[C@@H](OC(=O)CC(=O)O[C@H]3[C@@H]4C(=C)C(=O)O[C@@H]4C[C@@H](C)[C@@H]4C=CC(=O)[C@]43C)[C@H]12 was tested, and the AC50 [2] was 111 µM (active).

— ChEMBL document CHEMBL1201862, “PubChem BioAssay data set” (2004)
